In the supplement of paper PMC10307832:

How the values were obtained:
Test in all cases: relative viability (nuclei count vs DMSO), 5 days (fraction); higher = more cells survive
Tivantinib + Tozasertib = compound: O=C1NC(=O)[C@@H](c2cn3c4c(cccc24)CCC3)[C@@H]1c1c[nH]c2ccccc12 [Tivantinib] + Cc1cc(Nc2cc(N3CCN(C)CC3)nc(Sc3ccc(NC(=O)C4CC4)cc3)n2)n[nH]1 [Tozasertib] (partner 0.1 µM)
Procedure, shortened: (§1)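 Lung cancer cell lines were seeded in 1536-well plates and dosed by pin tool the next day, with either a single drug or a fixed anchor-drug dose combined with five library-drug doses (not always all listed) spaced in √10 steps. Five days later, one step fixed the cells and stained their nuclei (final 0.05% Triton X-100, 1% formaldehyde, 1 ug/ml Hoechst), and nuclei were counted on 4× images. Relative viability is the nuclei count in treated wells divided by the count in vehicle wells, and each value is the median of duplicate plates.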

Crenolanib + Crizotinib = compound: CC1(COc2ccc3c(c2)ncn3-c2ccc3cccc(N4CCC(N)CC4)c3n2)COC1 [Crenolanib] + C[C@@H](Oc1cc(-c2cnn(C3CCNCC3)c2)cnc1N)c1c(Cl)ccc(F)c1Cl [Crizotinib] (partner 1 µM)
Procedure, shortened: as §1

Tivantinib + Vorinostat = compound: O=C1NC(=O)[C@@H](c2cn3c4c(cccc24)CCC3)[C@@H]1c1c[nH]c2ccccc12 [Tivantinib] + O=C(CCCCCCC(=O)Nc1ccccc1)NO [Vorinostat] (partner 1 µM)
Procedure, shortened: as §1

Crenolanib + Decitabine = compound: CC1(COc2ccc3c(c2)ncn3-c2ccc3cccc(N4CCC(N)CC4)c3n2)COC1 [Crenolanib] + Nc1ncn([C@H]2C[C@H](O)[C@@H](CO)O2)c(=O)n1 [Decitabine] (partner 2 µM)
Procedure, shortened: as §1

Row | Cell Line | relative viability (Tivantinib + Tozasertib; first compound 0.01 µM) | relative viability (Tivantinib + Tozasertib; first compound 0.03162 µM) | relative viability (Tivantinib + Tozasertib; first compound 0.1 µM) | relative viability (Tivantinib + Tozasertib; first compound 0.3162 µM) | relative viability (Crenolanib + Crizotinib; first compound 0.01 µM) | relative viability (Crenolanib + Crizotinib; first compound 0.03162 µM) | relative viability (Crenolanib + Crizotinib; first compound 0.1 µM) | relative viability (Crenolanib + Crizotinib; first compound 0.3162 µM) | relative viability (Crenolanib + Crizotinib; first compound 1 µM) | relative viability (Tivantinib + Vorinostat; first compound 0.01 µM) | relative viability (Tivantinib + Vorinostat; first compound 0.03162 µM) | relative viability (Tivantinib + Vorinostat; first compound 0.1 µM) | relative viability (Tivantinib + Vorinostat; first compound 0.3162 µM) | relative viability (Crenolanib + Decitabine; first compound 0.01 µM) | relative viability (Crenolanib + Decitabine; first compound 0.03162 µM) | relative viability (Crenolanib + Decitabine; first compound 0.1 µM) | relative viability (Crenolanib + Decitabine; first compound 0.3162 µM) | relative viability (Crenolanib + Decitabine; first compound 1 µM)
1 | LC-2-ad | 0.455 | 0.409 | 0.393 | 0.313 | 0.439 | 0.444 | 0.56 | 0.44 | 0.486 | 0.694 | 0.694 | 0.655 | 0.715 | 0.833 | 0.844 | 0.759 | 0.818 | 0.78
2 | NCI-H650 | 0.857 | 0.61 | 0.802 | 0.585 | 0.968 | 0.706 | 0.805 | 0.5 | 0.644 | 0.45 | 0.356 | 0.443 | 0.4 | 0.295 | 0.306 | 0.281 | 0.295 | 0.33
3 | SK-MES-1 | 0.903 | 0.904 | 0.824 | 0.862 | 1 | 1 | 0.857 | 1.02 | 0.973 | 1.16 | 0.945 | 1.06 | 0.935 | 0.315 | 0.451 | 0.42 | 0.385 | 0.359
4 | NCI-H2170 | 0.771 | 0.619 | 0.749 | – | 1.21 | 1.18 | 1.19 | 1.18 | 1.17 | 0.852 | 0.812 | 0.74 | – | 0.474 | 0.504 | 0.452 | 0.506 | 0.454
5 | NCI-H2087 | 0.311 | 0.257 | 0.235 | 0.3 | 0.693 | 0.919 | 0.809 | 0.992 | 0.965 | 0.724 | 0.672 | 0.722 | 0.477 | 0.267 | 0.341 | 0.427 | 0.303 | 0.335
6 | NCI-H838 | 0.26 | 0.273 | 0.262 | 0.322 | 0.883 | 0.855 | 0.821 | 0.872 | 0.772 | 0.728 | 0.724 | 0.693 | 0.776 | 0.482 | 0.463 | 0.45 | 0.466 | 0.418
7 | NCI-H460 | 0.405 | 0.31 | 0.368 | 0.299 | 0.935 | 0.924 | 0.904 | 1.19 | 0.831 | 0.665 | 0.67 | 0.71 | 0.404 | 0.261 | 0.475 | 0.442 | 0.682 | 0.555
8 | LU99A | 0.261 | 0.276 | 0.266 | 0.291 | 0.565 | 0.654 | 0.615 | 0.558 | 0.568 | 0.514 | 0.438 | 0.456 | 0.47 | 0.976 | 0.844 | 0.897 | 1.07 | 0.975
9 | NCI-H322M | 0.483 | 0.458 | 0.502 | – | 0.96 | 0.807 | 1 | 0.903 | 1.05 | 0.903 | 0.833 | 0.861 | – | 0.863 | 0.748 | 0.663 | 0.73 | 0.71
